Data as given in patent US12076304B2, “Compositions comprising 15-HEPE and methods of treating or preventing hematologic disorders, and/or related diseases” (priority 2020, dated 2024).
“Also recorded” adds a separate entry of the source.

Legend:
[1] = system: NAFLD patients; assay: Phase IIa study in NAFLD patients: panel of protein biomarkers (proteomics); assay type: in vivo, human
Excerpt: (§1) The study was planned to include 96 evaluable patients with 32 patients randomized per treatment group.

[2] = system: TGF-β mRNA; assay: BDL mice liver quantitative RT-PCR, TGF-β; assay type: in vivo; details: for TGF-β relative mRNA expression level: BDL mice liver, normalized to 36B4, Sham 1.00, mean ± SD
Procedure: (§2) Quantitative RT-PCR: Total ribonucleic acid (RNA) was extracted from liver samples using RNAiso (Takara Bio, Japan) according to the manufacturer's instructions. One μg of RNA was reverse-transcribed using a reaction mixture containing 4.4 mM magnesium chloride (MgCl2) (F. Hoffmann-La Roche, Switzerland), 40 U RNase inhibitor (Toyobo, Japan), 0.5 mM dNTP (Promega, USA), 6.28 μM random hexamer (Promega), 5× first strand buffer (Promega), 10 mM dithiothreitol (Invitrogen, USA) and 200 U MMLV-RT (Invitrogen) in a final volume of 20 μL. The reaction was carried out for 1 hour at 37° C., followed by 5 minutes at 99° C. Real-time PCR was performed using real-time PCR DICE and TB Green™ Premix Ex Taq™ II (Takara Bio). To calculate the relative mRNA expression level, the expression of each gene (α-SMA, TIMP-1, TGF-β and Collagen Type 1) was normalized to that of reference gene 36B4 (gene symbol: Rplp0). Information regarding the PCR-primer sets and the plate layout are described in Tables 8 and 9.

[3] = system: Collagen Type 1 mRNA; assay: BDL mice liver quantitative RT-PCR, Collagen Type 1; assay type: in vivo; details: for Collagen Type 1 relative mRNA expression level: BDL mice liver, normalized to 36B4, Sham 1.00, mean ± SD
Procedure: as §2

[4] = system: α-SMA mRNA; assay: BDL mice liver quantitative RT-PCR, Alpha-SMA; assay type: in vivo; details: for Alpha-SMA relative mRNA expression level: BDL mice liver, normalized to 36B4, Sham 1.00, mean ± SD
Procedure: as §2

[5] = system: TIMP-1 mRNA; assay: BDL mice liver quantitative RT-PCR, TIMP-1; assay type: in vivo; details: for TIMP-1 relative mRNA expression level: BDL mice liver, normalized to 36B4, Sham 1.00, mean ± SD
Procedure: as §2

[6] = system: NAFLD patients; assay: Phase IIa study in NAFLD patients: ALP and liver fibrosis markers; assay type: in vivo, human; details: 2 g
Procedure: as §1
Clinical Laboratory Safety Tests: Safety tests were performed for hematology, serum biochemistry, coagulation, lipid profile, and urinalysis: Blood and urine samples were taken as per the Study Flow Chart in Table 19 for routine hematology, serum biochemistry, coagulation and urinalysis tests, along with a Lipid Profile. All samples were analyzed in the central laboratory. All subjects were fasted for a minimum of 8 hours prior to blood sampling. […]

[7] = system: NAFLD patients; assay: Phase IIa study in NAFLD patients: OWL liver care test; assay type: in vivo, human
Excerpt: as §1
OWL Liver Care is a test that was developed based on the plasma lipidomics in biopsy-confirmed NASH patients and provides high predictive values. OWL Liver Care has an area under the curve (AUC) of 0.88 for distinguishing NAFLD and normal liver patients and an AUC of 0.79 for distinguishing NAFLD without steatohepatitis and NASH patients.

[8] = system: TIMP-1 mRNA; assay: UUO mice kidney quantitative RT-PCR, TIMP-1; assay type: in vivo
Procedure: as §2, with “from kidney” for “from liver”, “[…] (mM) of” for “4.4 mM”, “relative […] (mRNA)” for “relative mRNA”, “gene (e.g., α-SMA,” for “gene (α-SMA,”, “Tables 1” for “Tables 8”, “and 2.” for “and 9.”

[9] = BDL mice, DS102 treatment groups as a whole
[10] = BDL mice, 500 mg/kg PO QD Day 0-13, 500 mg/kg
[11] = 1 g per day, baseline diagnosis NASH (19 at baseline)
[12] = 1 g per day, baseline diagnosis No NAFLD (4 at baseline)
[13] = 1 g per day, baseline diagnosis Steatosis (5 at baseline)
[14] = 2 g per day, baseline diagnosis NASH (12 at baseline)
[15] = 2 g per day, baseline diagnosis No NAFLD (3 at baseline)
[16] = 2 g per day, baseline diagnosis Steatosis (14 at baseline)
[17] = 50 mg/kg PO QD Day 0-13, normalized to 36B4, Sham 1.00, mean ± SD

Compound: 15-HEPE [DS102]
- TR (protein level) ([1]; 1 g): significant reductions
- proteins that passed the 1st threshold based on the Benjamini-Hochberg testing ([1]; 1 g group, Placebo group 0 proteins): 1
- NASH drug development targets (CCR215 signaling, Galectin3, AOC3) ([1]; 2 g): decreased
- inflammatory and pro-fibrotic proteins (protein expression) ([1]; 2 g, Table 21: PAI-1, TIMP-1, DPP4, TLT2, CCL16, MCP-1, SAA4, PI3, TR, LILRB1, TNRSF11A, Table 22: TL12, AOC3, PRSS2): decreased
- number of markers (inflammation, fibrosis, lipid metabolism, apoptosis, chemotaxis) with significantly downregulated expression ([1]; 2 g, panel of greater than 350 protein biomarkers): over 150
- expression of multiple circulating chemokines ([1]; NAFLD patients, vs placebo): decreased
- expression of multiple proteins associated with increased cardiovascular risk ([1]; NAFLD patients, vs placebo): decreased
- expression of multiple tumor necrosis factor receptor superfamily members ([1]; NAFLD patients, vs placebo): decreased
- expression of multiple vascular adhesion molecules ([1]; NAFLD patients, vs placebo): decreased
- TGF-β relative mRNA expression level ([2]; 50 mg/kg PO QD Day 0-13): 1.48 ± 0.48
- TGF-β relative mRNA expression level ([2]; 250 mg/kg PO QD Day 0-13): 1.50 ± 0.44
- TGF-β relative mRNA expression level ([2]; 500 mg/kg PO QD Day 0-13): 1.00 ± 0.23
- TGF-β mRNA expression level compared with the Vehicle group ([2]; BDL mice, 500 mg/kg PO QD Day 0-13): significant decrease
- TGF-β mRNA expression level, Vehicle group vs the DS102 treatment groups [2, 9]: no significant differences
- Collagen Type 1 relative mRNA expression level ([3]; 50 mg/kg PO QD Day 0-13): 4.94 ± 2.76
- Collagen Type 1 relative mRNA expression level ([3]; 250 mg/kg PO QD Day 0-13): 4.21 ± 1.90
- Collagen Type 1 relative mRNA expression level ([3]; 500 mg/kg PO QD Day 0-13): 2.51 ± 1.39
- Collagen Type 1 mRNA expression level compared with the Vehicle group [3, 10]: tended to decrease; also recorded: trend approaching significance
- Collagen Type 1 mRNA expression level, Vehicle group vs the DS102 treatment groups [3, 9]: no significant differences
- Alpha-SMA relative mRNA expression level ([4]; 50 mg/kg PO QD Day 0-13): 3.21 ± 1.67
- Alpha-SMA relative mRNA expression level ([4]; 250 mg/kg PO QD Day 0-13): 2.66 ± 1.33
- Alpha-SMA relative mRNA expression level ([4]; 500 mg/kg PO QD Day 0-13): 1.42 ± 0.75
- α-SMA mRNA expression level compared with the Vehicle group [4, 10]: tended to decrease; also recorded: trend approaching significance
- α-SMA mRNA expression level, Vehicle group vs the DS102 treatment groups [4, 9]: no significant differences
- TIMP-1 relative mRNA expression level ([5]; 50 mg/kg PO QD Day 0-13): 43.82 ± 26.19
- TIMP-1 relative mRNA expression level ([5]; 250 mg/kg PO QD Day 0-13): 30.65 ± 16.80
- TIMP-1 relative mRNA expression level ([5]; 500 mg/kg PO QD Day 0-13): 16.09 ± 10.16
- TIMP-1 mRNA expression level compared with the Vehicle group [5, 10]: tended to decrease; also recorded: trend approaching significance
- TIMP-1 mRNA expression level, Vehicle group vs the DS102 treatment groups [5, 9]: no significant differences
- alkaline phosphate (ALP) [6]: reduced
- multiple markers for liver fibrosis [6]: reduced
- OWL test Change in Diagnosis (Week 16 vs. baseline): Improvement, patients [7, 11]: 5
- OWL test Change in Diagnosis (Week 16 vs. baseline): Stable, patients [7, 11]: 14
- OWL test Change in Diagnosis (Week 16 vs. baseline): Stable, patients [7, 12]: 3
- OWL test Change in Diagnosis (Week 16 vs. baseline): Worsening, patients [7, 12]: 1
- OWL test Change in Diagnosis (Week 16 vs. baseline): Stable, patients [7, 13]: 2
- OWL test Change in Diagnosis (Week 16 vs. baseline): Worsening, patients [7, 13]: 3
- OWL test Change in Diagnosis (Week 16 vs. baseline): Improvement, patients [7, 14]: 5
- OWL test Change in Diagnosis (Week 16 vs. baseline): Stable, patients [7, 14]: 7
- OWL test Change in Diagnosis (Week 16 vs. baseline): Stable, patients [7, 15]: 2*, **
- OWL test Change in Diagnosis (Week 16 vs. baseline): Worsening, patients [7, 15]: 1
- OWL test Change in Diagnosis (Week 16 vs. baseline): Improvement, patients [7, 16]: 1
- OWL test Change in Diagnosis (Week 16 vs. baseline): Stable, patients [7, 16]: 9
- OWL test Change in Diagnosis (Week 16 vs. baseline): Worsening, patients [7, 16]: 4
- OWL liver care diagnosed NASH ([7]; NAFLD patients, dose dependent, vs placebo at Week 16): significantly improved and normalized
- TIMP-1 relative mRNA expression level [8, 17]: 138.30 ± 30.39
- TIMP-1 relative mRNA expression level ([8]; 500 mg/kg PO QD Day 0-13, normalized to 36B4, Sham 1.00, mean ± SD): 124.80 ± 28.60

Compound: CCCCCC(O)/C=C/C=C\C/C=C\CCCCCCC(=O)O (centres unmarked) [DS109, 15-HETrE]
- TIMP-1 relative mRNA expression level ([8]; 5 mg/kg PO QD Day 0-13, normalized to 36B4, Sham 1.00, mean ± SD): 153.60 ± 37.12
- TIMP-1 relative mRNA expression level [8, 17]: 167.70 ± 122.60
- TIMP-1 relative mRNA expression level ([8]; 250 mg/kg PO QD Day 0-13, normalized to 36B4, Sham 1.00, mean ± SD): 180.90 ± 23.12
